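96-well plates; 48 h exposure; 5 concentrations. Endpoints by linear interpolation between flanking doses. Not reached: highest tested concentration assigned. TGI: concentration producing complete growth inhibition.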
Columns and labels:
Assay in all cases: growth of human tumour cells (NCI), 48 h
[1] = system: MOLT-4 leukemia
[2] = system: OVCAR-3 ovarian
[3] = system: OVCAR-5 ovarian
[4] = system: 786-0 renal
[5] = system: A549 NSCLC
[6] = system: MCF7 breast
[7] = system: SNB-19 CNS
[8] = system: LOX IMVI melanoma
[9] = system: UACC-62 melanoma
[10] = system: SK-MEL-28 melanoma
[11] = system: CCRF-CEM leukemia
[12] = system: SF-268 CNS
[13] = system: SN12C renal
[14] = system: RPMI-8226 leukemia
[15] = system: MDA-N
[16] = system: CAKI-1 renal
[17] = system: NCI-H226 lung
[18] = system: HT29 colon
[19] = system: RXF 393 renal
[20] = system: PC-3 prostate

SMILES	TGI [1] [µM]	TGI [2] [µM]	TGI [3] [µM]	TGI [4] [µM]	TGI [5] [µM]	TGI [6] [µM]	TGI [7] [µM]	TGI [8] [µM]	TGI [9] [µM]	TGI [10] [µM]	TGI [11] [µM]	TGI [12] [µM]	TGI [13] [µM]	TGI [14] [µM]	TGI [15] [µM]	TGI [16] [µM]	TGI [17] [µM]	TGI [18] [µM]	TGI [19] [µM]	TGI [20] [µM]
Cc1ccc2c(c1)C(=O)C1(C2)Cc2c(C)cccc2C1=O (stereo not given)	> 100	> 100	> 100	> 100	> 100	> 100	> 100	> 100	> 100	> 100	> 100	> 100	> 100	> 100	> 100	> 100	> 100	> 100	> 100	> 100
CC(C)C[C@H]1[C@@H](OCc2ccccc2)COS(=O)(=O)N1[C@H](C)c1ccccc1	> 74.7	> 100	> 100	> 100	> 100	> 100	> 100	> 100	> 100	> 100	> 100	> 100	> 100	> 74.7	> 100	> 100	> 100	> 100	> 100	> 100
COC(=O)c1ccccc1/C=C1\Cc2c(C)c3c(c(C)c2C1=O)CCC3	> 100	> 100	> 100	> 100	> 100	> 100	> 100	> 100	> 100	> 100	> 100	> 100	> 100	> 100	> 100	> 100	> 100	> 100	> 100	> 100
O=C(CSc1ncccn1)N/N=C/c1ccccc1OCc1ccccc1	65.8	33.9	> 100	> 100	> 100	43.9	> 100	36.4	50.4	> 100	57.9	> 100	72.6	43.6	60.9	> 100	55.1	> 100	55.6	> 100
CCN(CCCl)c1cc(CN(C)C)cc(NC(=O)c2ccc(C(=O)Nc3cc(CN(C)C)cc(N(CC)CCCl)c3)cc2)c1	0.248	2.66	0.966	1.3	3.89	0.241	0.936	0.712	0.273	0.536	1.01	0.749	1.53	1.02	0.594	1.74	0.251	3.55	0.109	2.4
C=CCN1C(=O)/C(=C/c2ccc(Cl)cc2)N=C1SC/C=C/C	43.8	> 100	> 100	> 100	> 100	84.3	> 100	> 100	> 100	> 100	> 100	> 100	71.1	47.3	> 100	> 100	> 100	> 100	55.3	> 100
Cc1cn(C2OC(CO[Si](C)(C)C(C)(C)C)/C(=C\C#N)C2O[Si](C)(C)C(C)(C)C)c(=O)[nH]c1=O (stereo not given)	> 100	> 100	> 100	> 100	> 100	> 100	> 100	> 100	> 100	> 100	> 100	> 100	> 100	> 100	> 100	> 100	> 100	> 100	92	> 100
Cc1cc(S(=O)(=O)Nc2nc(N)nc(N3N=CCC3C)n2)c(SCC(=O)O)cc1Cl (stereo not given)	> 10	> 10	> 10	> 10	> 10	> 10	> 10	> 10	> 10	> 10	> 10	> 10	> 10	> 10	> 10	> 10	> 10	> 10	> 10	> 10
